What was measured:
[1] = test system: proteins of human liver microsomes (HLM); assay: Covalent binding between reactive metabolites and proteins using human liver microsomes; type: in vitro ADME
Experimental: Assay for Covalent Binding Between Reactive Metabolites and Proteins Using Human Liver Microsomes
The objective of the described covalent binding assay is to determine the amount of covalent binding between reactive metabolites and proteins of human liver microsomes (HLM) per hour following incubation in the presence of an NADPH regenerating system. The measured covalent binding rate is expressed in pmol bound drug equivalent/mg protein/h. It is a well-known advantage if compounds have a low tendency to bind covalently to proteins.
The radiolabelled compounds (^3H or ^14C) were incubated at a concentration of 10 μM in a single 96 well plate with 1.0 mg/mL of human liver microsomes in 0.1 M phosphate buffer (pH 7.4). To this end, a volume of 2.5 μL 1 mM stock solution prepared in the respective solvent (ethanol) was added to a final volume of 250 μL. Incubations were performed in the absence or presence of the NADPH-regenerating system with glucose-6-phosphate dehydrogenase (20 IU/ml dehydrogenase, 25 μl with 11 mM NADP sodium salt, 100 mM glucose-6-phosphate disodium salt, 100 mM MgCl2 in 0.1 M Tris buffer, pH 7.4) and additionally in the absence or presence of 5 mM GSH to trap reactive intermediates. An initial blank value without NADPH without incubation was also determined to determine unspecific rapid binding. Reactions were initiated by addition of 25 μL of an NADPH-regenerating system and terminated after one hour by adding 200 μL of the incubation mixture on a multiscreen deep well solvinert 96 hydrophobic PTFE filter plate (Millipore, Zug, Switzerland) containing 260 μL of ice-cold acetonitrile. The precipitation of microsomal proteins was completed by shaking the plate at 600 rpm at a temperature of 15° C. for 15 min. Finally, the precipitated incubation was stored at 4° C. for 15 min in the fridge. Proteins and filtrates were separated by centrifugation at 1800 g for 20 min at 10° C. The protein pellet was washed to remove unspecific binding with 800 μL of methanol/0.1% sulfuric acid (v/v) by centrifugation at 1500 g, 10° C. and 2 min. The washing step was repeated six times. The washed protein pellet was redissolved by addition of 500 μL of aqueous 0.1% (w/v) NaOH/1% (w/v) SDS. The filter plate was shaken at 400 rpm for 45 min at 60° C. and centrifugated at 2000 g for 20 min at 35° C. This step was repeated once and the protein solutions were combined.
For the determination of total radioactivity, an aliquot of 400 μL protein solution was mixed with 4 mL of liquid scintillation cocktail (Irga Safe plus, Perkin Elmer, Zurich, Switzerland) and analyzed using a Tricarb 2300 TR liquid scintillation analyzer (Perkin Elmer) with luminescence correction and on-line quenching correction by means of an external standard (^133Ba). For the determination of total protein content, an aliquot of 20 μL protein solution was analyzed using the BCA protein assay kit (Perbio Science Switzerland SA, Lausanne, Switzerland). The amount of covalent binding to microsomal proteins was calculated as follows: Dividing the determined amount of bound drug equivalent with NADPH (background subtracted by the amount of bound drug equivalent without NADPH) by the calculated amount of protein of redissolved washed protein pellet in each well gives the amount of bound drug equivalent in pmol/mg protein per hour.

human ALX receptor = biological target: T1, human ALX receptor (Homo sapiens, UniProt P25090); assay: Intracellular calcium measurements (FLIPR), ALX receptor agonistic activity; type: cell-based; details: HEK293-hALXR-Ga16 cells, calcium flux, normalized to WKYMVm 10 nM; read-out: EC50 (agonistic activity with respect to the ALX receptor)
T1 construct: expressed in transfected cells; host or cells: HEK293 (HEK293-hALXR-Ga16)
T1 sequence (P25090 1-351): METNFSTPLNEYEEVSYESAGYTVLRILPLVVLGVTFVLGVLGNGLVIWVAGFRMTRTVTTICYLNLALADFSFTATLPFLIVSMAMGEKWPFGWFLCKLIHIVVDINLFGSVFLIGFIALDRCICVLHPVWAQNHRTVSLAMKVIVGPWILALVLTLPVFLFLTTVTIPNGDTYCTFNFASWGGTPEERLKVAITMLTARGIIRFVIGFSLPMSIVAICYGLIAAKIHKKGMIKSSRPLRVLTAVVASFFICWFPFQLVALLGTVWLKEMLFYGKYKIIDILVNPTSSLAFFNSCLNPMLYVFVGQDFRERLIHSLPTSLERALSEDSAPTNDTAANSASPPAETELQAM
Experimental: The ALX receptor agonistic activity of the compounds of formula (I) is determined in accordance with the following experimental method.
Intracellular Calcium Measurements:
Cells expressing recombinant human ALX receptor and the G-protein Ga16 (HEK293-hALXR-Ga16) were grown to 80% confluency in Growing Medium (GM). Cells were detached from culture dishes with a cell dissociation buffer (Invitrogen, 13151-014), and collected by centrifugation at 1′000 rpm at rt for 5 min in Assay Buffer (AB) (equal parts of Hank's BSS (Gibco, 14065-049) and DMEM without Phenol Red (Gibco, 11880-028)). After 60 min incubation at 37° C. under 5% CO2 in AB supplemented with 1 μM Fluo-4 (AM) (Invitrogen, F14202) and 20 mM HEPES (Gibco, 15630-056), the cells were washed and resuspended in AB. They were then seeded onto 384-well FLIPR assay plates (Greiner, 781091) at 50′000 cells in 70 μl per well and sedimented by centrifugation at 1′000 rpm for 1 min. Stock solutions of test compounds were made up at a concentration of 10 mM in DMSO, and serially diluted in AB to concentrations required for activation dose response curves. WKYMVm (Phoenix Peptides) was used as a reference agonist. A FLIPR Tetra instrument (Molecular Devices) was operated according to the manufacturer's standard instructions, adding 4 μl of test compound dissolved at 10 mM in DMSO and diluted prior to the experiment in assay buffer to obtain the desired final concentration. Changes in fluorescence were monitored before and after the addition of test compounds at lex=488 nm and lem=540 nm. Emission peak values above base level after compounds addition were exported after base line subtraction. Values were normalized to high-level control (WKYMVm compound, 10 nM final concentration) after subtraction of the base line value (AB addition).

Row | Structure (SMILES) | EC50 (human ALX receptor) [nM] | further results
1 | Cc1cccc(-c2ocnc2C(=O)Nc2cnn(Cc3nc(C(C)(F)F)cs3)n2)c1 [Example 17, 5-m-Tolyl-oxazole-4-carboxylic acid {2-[4-(1,1-difluoro-ethyl)-thiazol-2-ylmethyl]-2H-[1,2,3]triazol-4-yl}-amide] | 11 | –
2 | Cc1cccc(-c2oc(C)nc2C(=O)Nc2cnn(Cc3ccc(C(C)(F)F)o3)n2)c1 [Example 1, 2-Methyl-5-m-tolyl-oxazole-4-carboxylic acid {2-[5-(1,1-difluoro-ethyl)-furan-2-ylmethyl]-2H-[1,2,3]triazol-4-yl}-amide] | 8.1 | –
3 | Cc1cc(F)cc(-c2oc(C)nc2C(=O)Nc2cnn(Cc3nc(C(C)(F)F)cs3)n2)c1 [Example 13, 5-(3-Fluoro-5-methyl-phenyl)-2-methyl-oxazole-4-carboxylic acid{2-[4-(1,1-difluoro-ethyl)-thiazol-2-ylmethyl]-2H-[1,2,3]triazol-4-yl}-amide] | 1130 | –
4 | COc1cccc(-c2ocnc2C(=O)Nc2cnn(Cc3ccc(C(C)(F)F)o3)n2)c1 [Example 21, 5-(3-Methoxy-phenyl)-oxazole-4-carboxylic acid {2-[5-(1,1-difluoro-ethyl)-furan-2-ylmethyl]-2H-[1,2,3]triazol-4-yl}-amide] | 35 | –
5 | CN(C)c1cccc(-c2ocnc2C(=O)Nc2cnn(Cc3nc(C(C)(F)F)co3)n2)c1 [Example 34, 5-(3-Dimethylamino-phenyl)-oxazole-4-carboxylic acid {2-[4-(1,1-difluoro-ethyl)-oxazol-2-ylmethyl]-2H-[1,2,3]triazol-4-yl}-amide] | 6.1 | –

Further compounds by falling EC50 (human ALX receptor), results first:

Row | EC50 (human ALX receptor) [nM] | Structure (SMILES) | further results
6 | 17 | CC(F)(F)c1ccc(Cn2ncc(NC(=O)c3ncoc3-c3cccc(Cl)c3)n2)o1 [Example 7, 5-(3-Chloro-phenyl)-oxazole-4-carboxylic acid{2-[5-(1,1-difluoro-ethyl)-furan-2-ylmethyl]-2H-[1,2,3]triazol-4-yl}-amide] | –
7 | 11 | CCc1nc(C(=O)Nc2cnn(Cc3nc(C(C)(F)F)cs3)n2)c(-c2ccccc2)o1 [Example 30, 2-Ethyl-5-phenyl-oxazole-4-carboxylic acid {2-[4-(1,1-difluoro-ethyl)-thiazol-2-ylmethyl]-2H-[1,2,3]triazol-4-yl}-amide] | –
8 | 5.6 | Cc1nc(C(=O)Nc2cnn(Cc3nc(C(C)(F)F)cs3)n2)c(-c2cccc(Cl)c2)o1 [Example 29, 5-(3-Chloro-phenyl)-2-methyl-oxazole-4-carboxylic acid {2-[4-(1,1-difluoro-ethyl)-thiazol-2-ylmethyl]-2H-[1,2,3]triazol-4-yl}-amide] | –
9 | 4 | CN(C)c1cc(-c2ocnc2C(=O)Nc2cnn(Cc3nc(C(C)(F)F)co3)n2)ccc1F [Example 35, 5-(3-Dimethylamino-4-fluoro-phenyl)-oxazole-4-carboxylic acid {2-[4-(1,1-difluoro-ethyl)-oxazol-2-ylmethyl]-2H-[1,2,3]triazol-4-yl}-amide] | –
10 | 2.4 | Cc1cccc(-c2oc(C)nc2C(=O)Nc2cnn(Cc3nc(C(C)(F)F)co3)n2)c1 [Example 31, 2-Methyl-5-m-tolyl-oxazole-4-carboxylic acid {2-[4-(1,1-difluoro-ethyl)-oxazol-2-ylmethyl]-2H-[1,2,3]triazol-4-yl}-amide] | Covalent binding profile compared to compounds of WO 2009/077990 ([1]; in words, versus examples 18 and 75 of WO 2009/077990): superior covalent binding profile; Covalent binding, HLM with NADPH and GSH ([1]; tritiated compound 10 μM, 1.0 mg/mL HLM, 1 h, with NADPH and 5 mM GSH): 28 pmol/mg protein per hour; Covalent binding, HLM with NADPH ([1]; tritiated compound 10 μM, 1.0 mg/mL HLM, 1 h, with NADPH-regenerating system): 22 pmol/mg protein per hour; Covalent binding, HLM without NADPH ([1]; tritiated compound 10 μM, 1.0 mg/mL HLM, 1 h, without NADPH): 3 pmol/mg protein per hour; Covalent binding, HLM with NADPH (background corrected as described above) [amount of bound drug equivalent] ([1]; tritiated compound 10 μM, 1.0 mg/mL HLM, 1 h, value without NADPH subtracted): 19 pmol/mg protein per hour
